Reference: US11186566B2, “Modulator of cystic fibrosis transmembrane conductance regulator, pharmaceutical compositions, methods of treatment, and process for making the modulator” (Vertex Pharmaceuticals Incorporated, priority 2016, dated 2021)
Entries after “also recorded” stand apart in the source; their conditions may differ. Like-named read-outs stand apart in the source and are kept apart here.

Key:
[1] = Metabolism of Compound 1 in vitro and in vivo
Protocol: Compound 1 and the metabolites shown in the following table were prepared and tested.

[2] = target: T1, F508del-CFTR (Homo sapiens (Human), UniProt P13569, DEL508-508); assay: F508del-CFTR processing and trafficking in vitro (170 to 180 kDa band); type: cell-based; conditions: for increase in steady-state levels, fold of untreated levels: F508del/F508del-HBE cells, 16 to 24 hours
Source text: The CFTR protein delivered to the cell surface by Compound 1 alone or in combination with Compound II (Compound I/Compound II) was potentiated by Compound III.

[3] = target: T1, F508del-CFTR; assay: Membrane potential optical (fluorescent voltage sensing dye, FLIPR III) HTS assay for F508del-CFTR modulators; type: cell-based
How it was run: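 NIH3T3 mouse fibroblasts stably expressing F508del-CFTR were seeded on matrigel-coated plates for 18–24 h at 37 °C. For correction assays they were cultured with or without compound for that period. Membrane potential was read on FLIPR III with voltage-sensing dyes, using a pH 7.4 NaCl/HEPES bath and a chloride-free gluconate substitute solution.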

[4] = target: T1, F508del-CFTR; assay: Ussing chamber chloride transport experiments in HBE cells; type: cell-based; conditions: Ussing Chamber, F508del/F508del-HBE cells
Protocol: Ussing chamber experiments were performed on polarized airway epithelial cells expressing F508del to further characterize the F508del modulators identified in the optical assays. Non-CF and CF airway epithelia were isolated from bronchial tissue, cultured as previously described (Galietta, L. J. V., Lantero, S., Gazzolo, A., Sacco, O., Romano, L., Rossi, G. A., & Zegarra-Moran, O. (1998) In Vitro Cell. Dev. Biol. 34, 478-481), and plated onto Costar® Snapwell™ filters that were precoated with NIH3T3-conditioned media. After four days the apical media was removed and the cells were grown at an air liquid interface for >14 days prior to use. […] CF-HBE were isolated from patients homozygous for […] or compound heterozygous for F508del with an different disease causing mutation on the other allele.
HBE grown on Costar® Snapwell™ cell culture inserts were mounted in an Ussing chamber (Physiologic Instruments, Inc., San Diego, Calif.), and the transepithelial resistance and short-circuit current in the presence of a basolateral to apical Cl^− gradient (ISC) were measured using a voltage-clamp system (Department of Bioengineering, University of Iowa, Iowa). Briefly, HBE were examined under voltage-clamp recording conditions (Vhold=0 mV) at 37° C. The basolateral solution contained (in mM) 145 NaCl, 0.83 K2HPO4, 3.3 KH2PO4, 1.2 MgCl2, 1.2 CaCl2, 10 Glucose, 10 HEPES (pH adjusted to 7.35 with NaOH) and the apical solution contained (in mM) 145 NaGluconate, 1.2 MgCl2, 1.2 CaCl2, 10 glucose, 10 HEPES (pH adjusted to 7.35 with NaOH).
Typical protocol utilized a basolateral to apical membrane Cl^− concentration gradient. To set up this gradient, normal ringers was used on the basolateral membrane, whereas apical NaCl was replaced by equimolar sodium gluconate (titrated to pH 7.4 with NaOH) to give a large Cl^− concentration gradient across the epithelium. Modulators were added either to the basolateral side […] to assay or to the apical side during the assay. Forskolin (10 μM) was added to the apical side during the assay to stimulate CFTR-mediated Cl^− transport. […]

[5] = target: human PXR (Homo sapiens (Human), UniProt O75469); assay: PXR assay (PXR mediated CYP3A4 induction, DPX-2 cell line); type: cell-based; conditions: DPX-2 cells, 48 hours, 0.1 to 60 μM
How it was run: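 HepG2-derived DPX-2 cells stably carrying human PXR and a CYP3A4 promoter–luciferase reporter, exposed 48 h to 11 doses (0.1–60 μM); rifampicin positive control. Viability by fluorescence, then luciferase luminescence; reports max fold induction over vehicle and EC50.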

[6] = Rat IV and PO PK studies; type: in vivo, male Sprague-Dawley rats; conditions: male, Sprague-Dawley, plasma

T1 sequence (P13569 other isoform, or with tags, fused parts or gaps del F508-F508): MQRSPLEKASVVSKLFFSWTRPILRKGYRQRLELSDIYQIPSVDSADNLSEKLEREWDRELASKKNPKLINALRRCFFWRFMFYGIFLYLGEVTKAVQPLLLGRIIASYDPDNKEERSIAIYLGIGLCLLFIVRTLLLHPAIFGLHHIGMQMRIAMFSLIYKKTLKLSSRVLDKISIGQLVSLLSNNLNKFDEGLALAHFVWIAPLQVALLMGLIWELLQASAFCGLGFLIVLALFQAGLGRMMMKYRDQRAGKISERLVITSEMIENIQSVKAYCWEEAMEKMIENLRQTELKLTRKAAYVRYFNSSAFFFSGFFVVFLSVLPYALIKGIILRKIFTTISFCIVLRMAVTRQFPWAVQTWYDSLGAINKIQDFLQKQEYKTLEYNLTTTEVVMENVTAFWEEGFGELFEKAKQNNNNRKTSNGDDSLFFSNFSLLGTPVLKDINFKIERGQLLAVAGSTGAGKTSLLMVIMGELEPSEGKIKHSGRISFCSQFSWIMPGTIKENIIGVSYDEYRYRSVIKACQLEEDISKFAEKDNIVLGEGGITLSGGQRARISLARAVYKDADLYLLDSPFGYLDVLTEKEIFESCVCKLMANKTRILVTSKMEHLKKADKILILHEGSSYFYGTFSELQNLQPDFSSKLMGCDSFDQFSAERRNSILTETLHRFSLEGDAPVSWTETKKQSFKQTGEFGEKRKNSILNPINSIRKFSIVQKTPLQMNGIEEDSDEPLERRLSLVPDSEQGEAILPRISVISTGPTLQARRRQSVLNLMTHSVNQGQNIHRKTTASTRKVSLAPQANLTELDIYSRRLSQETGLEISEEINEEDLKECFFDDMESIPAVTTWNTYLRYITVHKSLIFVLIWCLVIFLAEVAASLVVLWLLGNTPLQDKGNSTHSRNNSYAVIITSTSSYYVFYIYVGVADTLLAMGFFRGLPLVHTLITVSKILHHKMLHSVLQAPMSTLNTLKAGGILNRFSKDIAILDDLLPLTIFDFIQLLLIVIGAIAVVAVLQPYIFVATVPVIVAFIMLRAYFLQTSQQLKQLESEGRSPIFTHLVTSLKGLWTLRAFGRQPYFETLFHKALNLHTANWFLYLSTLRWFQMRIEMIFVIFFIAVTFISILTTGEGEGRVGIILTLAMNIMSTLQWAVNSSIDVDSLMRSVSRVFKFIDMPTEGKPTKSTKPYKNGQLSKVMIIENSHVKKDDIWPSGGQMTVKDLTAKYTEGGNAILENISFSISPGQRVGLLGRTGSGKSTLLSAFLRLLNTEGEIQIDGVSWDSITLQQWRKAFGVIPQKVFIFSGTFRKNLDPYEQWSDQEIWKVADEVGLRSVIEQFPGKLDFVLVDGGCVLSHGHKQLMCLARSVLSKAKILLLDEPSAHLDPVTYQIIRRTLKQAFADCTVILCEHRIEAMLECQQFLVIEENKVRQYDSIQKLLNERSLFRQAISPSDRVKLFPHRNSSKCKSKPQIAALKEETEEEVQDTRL
human PXR, sequence (O75469 whole entry): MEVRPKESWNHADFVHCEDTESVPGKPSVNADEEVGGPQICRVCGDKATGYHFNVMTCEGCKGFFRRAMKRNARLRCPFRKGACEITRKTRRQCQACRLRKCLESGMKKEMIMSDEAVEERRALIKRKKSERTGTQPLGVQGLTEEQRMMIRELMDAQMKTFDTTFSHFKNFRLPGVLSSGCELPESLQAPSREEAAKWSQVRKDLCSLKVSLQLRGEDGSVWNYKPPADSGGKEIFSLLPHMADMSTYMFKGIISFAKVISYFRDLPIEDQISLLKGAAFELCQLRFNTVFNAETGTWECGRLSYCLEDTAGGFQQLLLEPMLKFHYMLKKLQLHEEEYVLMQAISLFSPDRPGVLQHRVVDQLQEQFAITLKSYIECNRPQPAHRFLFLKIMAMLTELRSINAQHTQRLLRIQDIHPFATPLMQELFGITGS

Structure (SMILES): C[C@@H]1CN(c2nc(-n3ccc(OCCC4(C(F)(F)F)CC4)n3)ccc2C(=O)NS(=O)(=O)c2ccccc2)C(C)(C)C1 [Compound 1, N-(benzenesulfonyl)-6-[3-[2-[1-(trifluoromethyl)cyclopropyl]ethoxy]pyrazol-1-yl]-2-[(4S)-2,2,4-trimethylpyrrolidin-1-yl]pyridine-3-carboxamide]
- metabolism [1]: metabolized both in vitro and in vivo, mostly by oxidative metabolism
- increase in steady-state levels, fold of untreated levels [2]: 6.5 fold
- increase in steady-state levels, fold of untreated levels ([2]; Compound 1 in combination with 3 μM Compound II): 18.7 fold
- processing and trafficking of F508del-CFTR ([2]; in vitro): improved the processing and trafficking of F508del-CFTR; also recorded: facilitates the processing and trafficking of F508del-CFTR
- EC50 ([3]; F508del NIH 3T3 cells, assay 5A-A1, read-out: CFTRdF508 EC50): < 100 nM
- EC50 ([3]; F508del NIH 3T3 cells, assay 5A-A1, read-out: EC50): < 3000 nM
- Emax ([3]; NIH3T3, F508del NIH 3T3 cells, relative to Compound II, read-out: % Efficacy relative to Compound II): ≥ 100%
- EC50 ([3]; Table 7, Compound 1 and metabolites, read-out: CFTRdF508 EC50): 30 nM
- EC50 ([3]; Table 9, read-out: CFTR dF508 EC50): 30 nM
- chloride transport [4]: enhanced chloride transport
- effect on chloride transport in relation to the effect of Compound II [4]: additive to the effect of Compound II
- PXR Max Induction (% of rifampicin) [5]: 3 % of rifampicin
- bioavailability ([6]; 3 mg/kg, oral, read-out: Rat po % F): 63%
- clearance ([6]; intravenous, 3.0 mg/kg, read-out: Rat iv CL): 1.6 mL/min/kg
- AUC ([6]; oral, 3 mg/kg): 21000 ng·h/mL
